Test results reported in article PMC10528299, “Targeting FAK/PYK2 with SJP1602 for Anti-Tumor Activity in Triple-Negative Breast Cancer” (Current Issues in Molecular Biology, 2023).

Legend:
Assay in all cases: Eurofins kinase profiling
Format in all cases: biochemical
PKC μ(h) = biological target: T1, PKC μ(h) (Homo sapiens, UniProt Q15139); conditions: read-out: residual kinase activity PKC μ(h)
T1 construct: purchased Eurofins KinaseProfiler
T1 sequence (Q15139 1-912): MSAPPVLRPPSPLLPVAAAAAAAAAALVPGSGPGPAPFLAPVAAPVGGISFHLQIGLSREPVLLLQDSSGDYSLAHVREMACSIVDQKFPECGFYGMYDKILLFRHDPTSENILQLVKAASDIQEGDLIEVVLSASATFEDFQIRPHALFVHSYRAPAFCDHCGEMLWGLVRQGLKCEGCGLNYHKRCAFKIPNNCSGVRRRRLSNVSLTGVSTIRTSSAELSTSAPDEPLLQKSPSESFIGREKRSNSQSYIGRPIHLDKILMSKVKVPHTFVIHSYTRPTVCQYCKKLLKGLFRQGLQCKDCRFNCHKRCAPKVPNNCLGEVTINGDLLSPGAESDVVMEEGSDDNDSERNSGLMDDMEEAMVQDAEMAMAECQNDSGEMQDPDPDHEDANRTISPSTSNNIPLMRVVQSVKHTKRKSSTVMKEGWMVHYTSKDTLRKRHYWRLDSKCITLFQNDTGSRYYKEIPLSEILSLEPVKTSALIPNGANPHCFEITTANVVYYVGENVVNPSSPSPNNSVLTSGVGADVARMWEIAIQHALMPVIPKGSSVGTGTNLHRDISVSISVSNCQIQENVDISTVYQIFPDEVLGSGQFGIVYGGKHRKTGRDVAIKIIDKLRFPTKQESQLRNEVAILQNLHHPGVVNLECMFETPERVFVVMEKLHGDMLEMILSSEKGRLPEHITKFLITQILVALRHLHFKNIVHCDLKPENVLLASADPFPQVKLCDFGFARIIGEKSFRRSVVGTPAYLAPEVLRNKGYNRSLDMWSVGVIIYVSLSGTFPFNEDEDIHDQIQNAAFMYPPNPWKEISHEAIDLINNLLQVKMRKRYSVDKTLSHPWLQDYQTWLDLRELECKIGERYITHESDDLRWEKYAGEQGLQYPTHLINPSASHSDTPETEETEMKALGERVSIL
Outline: (§1)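 Panel of 110 assays under standard conditions; these protein kinases were tested in the radiometric KinaseProfiler assay at a single 1 µM compound concentration.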

MEK1(h) = biological target: T2, MEK1(h) (Homo sapiens, UniProt Q02750); conditions: read-out: residual kinase activity MEK1(h)
T2 construct: purchased Eurofins KinaseProfiler
Outline: as §1

[1] = biological target: T3, PI3 Kinase (p110a(H1047R)/p85a)(h) (Homo sapiens, UniProt P42336, H1047R); conditions: read-out: residual kinase activity PI3 Kinase (p110a(H1047R)/p85a)(h)
T3 construct: purchased Eurofins KinaseProfiler
Outline: as §1

TrkA(h) = biological target: T4, TrkA(h) (Homo sapiens, UniProt P04629); conditions: read-out: residual kinase activity TrkA(h)
T4 construct: purchased Eurofins KinaseProfiler
Outline: as §1

PDK1(h) = biological target: T5, PDK1(h) (Homo sapiens, UniProt O15530); conditions: read-out: residual kinase activity PDK1(h)
T5 construct: purchased Eurofins KinaseProfiler
T5 sequence (O15530 1-556): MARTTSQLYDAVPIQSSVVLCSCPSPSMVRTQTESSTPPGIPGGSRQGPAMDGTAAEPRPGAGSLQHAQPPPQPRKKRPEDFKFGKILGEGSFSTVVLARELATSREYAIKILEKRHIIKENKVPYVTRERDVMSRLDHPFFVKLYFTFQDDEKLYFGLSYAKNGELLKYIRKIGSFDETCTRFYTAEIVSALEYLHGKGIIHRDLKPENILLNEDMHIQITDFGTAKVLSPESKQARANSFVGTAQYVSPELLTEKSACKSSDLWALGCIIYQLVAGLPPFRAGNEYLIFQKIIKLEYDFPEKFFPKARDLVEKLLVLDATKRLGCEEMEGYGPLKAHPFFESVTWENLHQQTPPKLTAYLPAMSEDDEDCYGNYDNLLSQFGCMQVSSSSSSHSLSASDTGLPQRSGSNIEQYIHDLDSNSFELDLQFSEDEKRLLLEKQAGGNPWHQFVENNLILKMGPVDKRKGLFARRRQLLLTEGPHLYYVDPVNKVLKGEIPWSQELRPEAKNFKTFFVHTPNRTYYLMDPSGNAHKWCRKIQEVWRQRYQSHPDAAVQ
Outline: as §1

EGFR(T790M,L858R)(h) = biological target: T6, EGFR(T790M,L858R)(h) (Homo sapiens, UniProt P00533, L858R/T790M); conditions: read-out: residual kinase activity EGFR(T790M,L858R)(h)
T6 construct: purchased Eurofins KinaseProfiler
Outline: as §1

c-RAF(h) = biological target: T7, c-RAF(h) (Homo sapiens, UniProt P04049); conditions: read-out: residual kinase activity c-RAF(h)
T7 construct: purchased Eurofins KinaseProfiler
Outline: as §1

Blk(h) = biological target: T8, Blk(h) (Homo sapiens, UniProt P51451); conditions: read-out: residual kinase activity Blk(h)
T8 construct: purchased Eurofins KinaseProfiler
Outline: as §1

MST3(h) = biological target: T9, MST3(h) (Homo sapiens, UniProt Q9Y6E0); conditions: read-out: residual kinase activity MST3(h)
T9 construct: purchased Eurofins KinaseProfiler
Outline: as §1

Abl(h) = biological target: T10, Abl(h) (Homo sapiens, UniProt P00519); conditions: read-out: residual kinase activity Abl(h)
T10 construct: purchased Eurofins KinaseProfiler
Outline: as §1

Aurora-A(h) = biological target: T11, Aurora-A(h) (Homo sapiens, UniProt O14965); conditions: read-out: residual kinase activity Aurora-A(h)
T11 construct: purchased Eurofins KinaseProfiler
T11 sequence (O14965 1-403): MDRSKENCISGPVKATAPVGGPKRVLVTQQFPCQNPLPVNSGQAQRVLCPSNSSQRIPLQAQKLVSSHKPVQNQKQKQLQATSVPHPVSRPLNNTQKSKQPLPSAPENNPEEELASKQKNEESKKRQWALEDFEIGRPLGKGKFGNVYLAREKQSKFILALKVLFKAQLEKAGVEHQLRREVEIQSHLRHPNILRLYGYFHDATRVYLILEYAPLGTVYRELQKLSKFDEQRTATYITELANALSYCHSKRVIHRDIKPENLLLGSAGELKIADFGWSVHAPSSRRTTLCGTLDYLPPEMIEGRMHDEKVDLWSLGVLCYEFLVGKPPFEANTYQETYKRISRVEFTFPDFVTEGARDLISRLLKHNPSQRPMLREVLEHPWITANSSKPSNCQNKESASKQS
Outline: as §1

Met(h) = biological target: T12, Met(h) (Homo sapiens, UniProt P08581); conditions: for remaining activity at 1 µM: read-out: residual kinase activity Met(h)
T12 construct: purchased Eurofins KinaseProfiler
Outline: as §1

T10 sequence (P00519 whole entry): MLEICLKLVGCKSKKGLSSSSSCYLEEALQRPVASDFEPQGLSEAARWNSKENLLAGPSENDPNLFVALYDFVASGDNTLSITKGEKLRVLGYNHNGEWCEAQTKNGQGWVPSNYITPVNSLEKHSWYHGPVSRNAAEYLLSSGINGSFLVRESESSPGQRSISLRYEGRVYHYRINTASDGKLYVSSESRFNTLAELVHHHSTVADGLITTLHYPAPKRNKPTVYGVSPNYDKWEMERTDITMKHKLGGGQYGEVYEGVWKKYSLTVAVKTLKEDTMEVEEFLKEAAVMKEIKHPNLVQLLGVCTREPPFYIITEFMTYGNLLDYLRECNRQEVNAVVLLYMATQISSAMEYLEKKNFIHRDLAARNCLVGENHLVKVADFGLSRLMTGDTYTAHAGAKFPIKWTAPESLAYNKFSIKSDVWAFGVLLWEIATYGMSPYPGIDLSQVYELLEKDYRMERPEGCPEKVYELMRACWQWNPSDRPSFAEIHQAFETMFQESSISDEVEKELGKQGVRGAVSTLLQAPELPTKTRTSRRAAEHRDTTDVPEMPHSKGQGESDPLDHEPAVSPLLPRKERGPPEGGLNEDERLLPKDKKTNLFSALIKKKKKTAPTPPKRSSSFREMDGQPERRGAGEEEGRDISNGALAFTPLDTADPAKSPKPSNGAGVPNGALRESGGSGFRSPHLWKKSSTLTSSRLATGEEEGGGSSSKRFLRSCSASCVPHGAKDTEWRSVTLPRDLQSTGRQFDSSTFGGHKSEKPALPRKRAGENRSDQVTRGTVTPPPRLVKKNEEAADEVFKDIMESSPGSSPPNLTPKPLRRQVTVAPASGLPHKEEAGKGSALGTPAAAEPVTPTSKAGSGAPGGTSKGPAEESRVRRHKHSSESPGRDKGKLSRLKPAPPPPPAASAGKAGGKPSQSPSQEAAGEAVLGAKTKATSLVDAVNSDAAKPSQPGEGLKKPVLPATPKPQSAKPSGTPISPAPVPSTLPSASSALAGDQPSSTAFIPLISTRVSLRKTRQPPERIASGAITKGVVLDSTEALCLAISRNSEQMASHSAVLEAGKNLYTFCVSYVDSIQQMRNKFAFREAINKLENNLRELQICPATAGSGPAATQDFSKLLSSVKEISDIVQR
T2 sequence (Q02750 whole entry): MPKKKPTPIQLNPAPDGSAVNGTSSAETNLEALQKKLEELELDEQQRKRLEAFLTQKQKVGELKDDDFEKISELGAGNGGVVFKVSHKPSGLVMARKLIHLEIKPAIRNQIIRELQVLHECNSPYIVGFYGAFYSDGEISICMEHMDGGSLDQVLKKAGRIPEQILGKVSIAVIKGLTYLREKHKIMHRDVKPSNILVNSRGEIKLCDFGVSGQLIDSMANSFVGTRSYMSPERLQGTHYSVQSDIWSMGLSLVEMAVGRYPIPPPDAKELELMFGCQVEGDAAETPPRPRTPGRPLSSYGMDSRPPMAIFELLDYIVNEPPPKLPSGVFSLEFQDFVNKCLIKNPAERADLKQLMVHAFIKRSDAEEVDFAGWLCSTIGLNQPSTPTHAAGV
T9 sequence (Q9Y6E0 whole entry): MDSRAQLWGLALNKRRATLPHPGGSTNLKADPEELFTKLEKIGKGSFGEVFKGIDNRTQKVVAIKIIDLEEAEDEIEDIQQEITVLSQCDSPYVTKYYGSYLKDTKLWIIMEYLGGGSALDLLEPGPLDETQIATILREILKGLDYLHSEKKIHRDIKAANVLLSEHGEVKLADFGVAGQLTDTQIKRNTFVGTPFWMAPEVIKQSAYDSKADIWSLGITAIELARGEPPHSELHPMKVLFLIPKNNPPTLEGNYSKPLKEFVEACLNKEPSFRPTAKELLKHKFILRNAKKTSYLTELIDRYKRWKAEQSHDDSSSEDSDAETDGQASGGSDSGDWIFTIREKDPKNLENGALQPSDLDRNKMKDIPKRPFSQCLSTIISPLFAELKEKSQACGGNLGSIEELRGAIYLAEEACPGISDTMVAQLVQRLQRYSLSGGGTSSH
T3 sequence (P42336 whole entry H1047R): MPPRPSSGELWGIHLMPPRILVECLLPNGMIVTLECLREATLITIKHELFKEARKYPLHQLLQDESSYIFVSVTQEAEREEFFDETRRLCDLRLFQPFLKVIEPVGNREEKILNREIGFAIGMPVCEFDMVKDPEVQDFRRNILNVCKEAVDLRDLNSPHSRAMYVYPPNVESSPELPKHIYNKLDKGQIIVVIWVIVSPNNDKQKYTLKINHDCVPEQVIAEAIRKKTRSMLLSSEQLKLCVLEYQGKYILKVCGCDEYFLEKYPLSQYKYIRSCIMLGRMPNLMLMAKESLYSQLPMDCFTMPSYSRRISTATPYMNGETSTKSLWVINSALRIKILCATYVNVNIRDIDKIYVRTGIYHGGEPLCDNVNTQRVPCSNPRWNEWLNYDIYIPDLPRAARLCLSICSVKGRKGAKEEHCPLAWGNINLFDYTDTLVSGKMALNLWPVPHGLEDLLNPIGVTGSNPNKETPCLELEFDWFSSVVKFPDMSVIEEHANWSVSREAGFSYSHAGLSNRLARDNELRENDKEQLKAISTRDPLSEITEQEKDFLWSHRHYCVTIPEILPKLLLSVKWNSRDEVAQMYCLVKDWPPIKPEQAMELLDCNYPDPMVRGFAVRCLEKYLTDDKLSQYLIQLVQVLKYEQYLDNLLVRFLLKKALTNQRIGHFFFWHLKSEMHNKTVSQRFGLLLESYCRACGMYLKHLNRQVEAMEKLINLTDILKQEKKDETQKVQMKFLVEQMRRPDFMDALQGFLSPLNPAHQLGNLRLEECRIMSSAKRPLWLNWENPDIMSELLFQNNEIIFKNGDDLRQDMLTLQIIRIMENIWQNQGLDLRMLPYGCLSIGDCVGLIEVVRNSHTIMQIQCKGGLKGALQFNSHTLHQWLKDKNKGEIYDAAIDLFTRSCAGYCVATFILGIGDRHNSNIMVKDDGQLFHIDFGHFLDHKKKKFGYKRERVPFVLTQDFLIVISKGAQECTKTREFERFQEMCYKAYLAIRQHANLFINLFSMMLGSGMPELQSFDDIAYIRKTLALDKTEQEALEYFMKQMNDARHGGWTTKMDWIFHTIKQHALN
T3 sequence (P27986 whole entry partner): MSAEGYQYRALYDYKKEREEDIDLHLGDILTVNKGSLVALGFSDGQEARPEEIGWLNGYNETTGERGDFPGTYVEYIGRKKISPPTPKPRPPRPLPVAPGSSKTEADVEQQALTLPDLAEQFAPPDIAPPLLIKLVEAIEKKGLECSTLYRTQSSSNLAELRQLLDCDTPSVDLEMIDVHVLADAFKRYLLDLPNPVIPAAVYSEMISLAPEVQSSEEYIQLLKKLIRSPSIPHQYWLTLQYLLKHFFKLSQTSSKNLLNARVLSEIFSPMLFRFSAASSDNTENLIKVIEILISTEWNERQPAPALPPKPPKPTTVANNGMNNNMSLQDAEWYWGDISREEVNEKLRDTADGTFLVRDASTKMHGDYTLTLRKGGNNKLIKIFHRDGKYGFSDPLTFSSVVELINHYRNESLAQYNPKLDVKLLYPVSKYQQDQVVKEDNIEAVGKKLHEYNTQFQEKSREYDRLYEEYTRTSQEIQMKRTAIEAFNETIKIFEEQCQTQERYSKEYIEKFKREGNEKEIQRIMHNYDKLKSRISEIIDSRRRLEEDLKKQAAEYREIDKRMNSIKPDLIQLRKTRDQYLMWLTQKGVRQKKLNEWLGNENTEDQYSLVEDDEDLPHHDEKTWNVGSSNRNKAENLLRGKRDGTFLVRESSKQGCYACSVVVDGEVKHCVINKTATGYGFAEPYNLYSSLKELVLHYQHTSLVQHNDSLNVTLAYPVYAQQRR
T4 sequence (P04629 33-796): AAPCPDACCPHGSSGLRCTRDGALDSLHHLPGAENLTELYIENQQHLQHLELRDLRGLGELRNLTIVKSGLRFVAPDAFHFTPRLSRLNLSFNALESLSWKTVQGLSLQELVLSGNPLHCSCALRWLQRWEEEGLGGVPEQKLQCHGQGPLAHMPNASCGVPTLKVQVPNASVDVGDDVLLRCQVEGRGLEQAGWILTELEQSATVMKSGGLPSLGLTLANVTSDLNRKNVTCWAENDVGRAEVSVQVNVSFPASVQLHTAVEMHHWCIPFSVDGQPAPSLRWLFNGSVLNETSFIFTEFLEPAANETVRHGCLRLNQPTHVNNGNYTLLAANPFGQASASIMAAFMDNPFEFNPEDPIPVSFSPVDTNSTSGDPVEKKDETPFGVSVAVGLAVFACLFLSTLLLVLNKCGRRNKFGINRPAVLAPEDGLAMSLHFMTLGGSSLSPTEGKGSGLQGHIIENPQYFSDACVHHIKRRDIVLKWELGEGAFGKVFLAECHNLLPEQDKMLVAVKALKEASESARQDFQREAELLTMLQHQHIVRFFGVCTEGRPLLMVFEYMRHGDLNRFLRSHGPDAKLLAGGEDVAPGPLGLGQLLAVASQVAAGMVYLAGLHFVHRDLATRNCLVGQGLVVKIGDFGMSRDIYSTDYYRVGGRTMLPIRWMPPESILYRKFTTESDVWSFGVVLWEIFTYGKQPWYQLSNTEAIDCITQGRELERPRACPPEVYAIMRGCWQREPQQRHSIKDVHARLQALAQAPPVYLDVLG
T8 sequence (P51451 whole entry): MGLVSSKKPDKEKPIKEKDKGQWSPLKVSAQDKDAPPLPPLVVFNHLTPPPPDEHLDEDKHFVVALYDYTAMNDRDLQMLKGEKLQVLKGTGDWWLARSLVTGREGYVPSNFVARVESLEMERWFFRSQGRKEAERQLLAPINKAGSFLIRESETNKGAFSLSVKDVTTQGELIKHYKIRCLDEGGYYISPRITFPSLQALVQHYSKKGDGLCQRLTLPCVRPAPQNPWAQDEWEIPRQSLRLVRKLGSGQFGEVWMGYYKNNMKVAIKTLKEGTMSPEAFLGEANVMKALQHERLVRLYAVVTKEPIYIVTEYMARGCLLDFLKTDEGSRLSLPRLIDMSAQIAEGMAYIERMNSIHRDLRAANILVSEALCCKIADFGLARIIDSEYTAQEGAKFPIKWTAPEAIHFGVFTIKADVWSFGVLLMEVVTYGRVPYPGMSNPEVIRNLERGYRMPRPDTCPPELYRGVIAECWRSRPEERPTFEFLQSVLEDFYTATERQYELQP

Compound | remaining activity at 1 µM (PKC μ(h)) [%] | remaining activity at 1 µM (MEK1(h)) [%] | remaining activity at 1 µM [1] [%] | remaining activity at 1 µM (TrkA(h)) [%] | remaining activity at 1 µM (PDK1(h)) [%] | remaining activity at 1 µM (EGFR(T790M,L858R)(h)) [%] | remaining activity at 1 µM (c-RAF(h)) [%] | remaining activity at 1 µM (Blk(h)) [%] | remaining activity at 1 µM (MST3(h)) [%] | remaining activity at 1 µM (Abl(h)) [%] | remaining activity at 1 µM (Aurora-A(h)) [%] | remaining activity at 1 µM (Met(h)) [%] | inhibition at 1 µM (Met(h)) [%]
CONC(=O)c1ccccc1Nc1cc(Nc2cc(C)nn2C(C)C)ncc1Cl [GSK2256098] | 109 | 101 | 97 | 103 | 117 | 88 | 72 | 117 | 102 | 99 | 43 | 76 | –
CNC(=O)c1cccc(C)c1Nc1nc(Nc2ccc(N3CCN(C4C5CC6CC4CC(O)(C6)C5)CC3)cc2OC)ncc1C(F)(F)F (stereo not shown) [SJP1602, 2-((2-((4-(4-((2s,5r)-5-hydroxyadamantan-2-yl)piperazin-1-yl)-2-methoxyphenyl)amino)-5-(trifluoromethyl)pyrimidin-4-yl)amino)-N,3-dimethylbenzamide] | 113 | 98 | 97 | 109 | 102 | 88 | 90 | 85 | 95 | 76 | 48 | 21 | 79
CNC(=O)c1ccc(Nc2ncc(C(F)(F)F)c(NCc3nccnc3N(C)S(C)(=O)=O)n2)cc1 [VS-6063, Defactinib] | 100 | 93 | 101 | 2 | 66 | 65 | 80 | 62 | 33 | 57 | 12 | 42 | –
